Molecular target: T1, human GPR39 receptors on human GPR39-2 cell lines (Homo sapiens, UniProt O43194)
T1 construct: P2A-mCherry (C)
T1 sequence (O43194 1-453): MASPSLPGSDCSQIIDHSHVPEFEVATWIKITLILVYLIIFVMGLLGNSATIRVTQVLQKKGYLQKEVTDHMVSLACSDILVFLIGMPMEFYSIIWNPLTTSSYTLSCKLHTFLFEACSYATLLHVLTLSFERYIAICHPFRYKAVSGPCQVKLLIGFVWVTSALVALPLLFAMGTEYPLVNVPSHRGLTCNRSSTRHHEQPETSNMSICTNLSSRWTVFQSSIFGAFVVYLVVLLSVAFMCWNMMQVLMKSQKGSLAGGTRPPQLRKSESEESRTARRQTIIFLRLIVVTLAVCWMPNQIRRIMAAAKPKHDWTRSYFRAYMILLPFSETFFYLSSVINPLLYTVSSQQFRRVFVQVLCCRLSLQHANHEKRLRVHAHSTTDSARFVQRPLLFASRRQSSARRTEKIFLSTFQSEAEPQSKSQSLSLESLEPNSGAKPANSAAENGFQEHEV
Experiment: FLIPR calcium imaging on human GPR39-2 cell line stably expressing human GPR39
Format: cell-based
Details: FIG. 9
Excerpt: The human GPR39 cDNA vector was purchased from WZ Biosciences Inc., Shandong. It was cloned onto a lentiviral vector PLVXK-hGPR39-P2A-mCherry (FIG. 10) through PCR amplification using primers hGPR39-F (which sequence was shown as set forth in SEQshown as set forth in SEQ ID NO: 15) and hGPR39-R (which sequence was shown as set forth in SEQ shown as set forth in SEQ ID NO: 16), in which the sequence of the target gene human GPR39 cDNA was shown as set forth in SEQ shown as set forth in SEQ ID NO: 14. A cell line human GPR39-2 stably expressing human GPR39 gene was constructed according to the method of Example 1.

Row | Structure (SMILES) | intracellular calcium signal response of human GPR39-2
1 | C[C@H](CCC(=O)NCC(=O)O)[C@H]1CC[C@H]2[C@@H]3CC[C@@H]4C[C@H](OS(=O)(=O)O)CC[C@]4(C)[C@H]3CC[C@]12C [GLCAS] | capable of inducing intracellular calcium signal response
2 | C[C@H](CCC(=O)NCCS(=O)(=O)[O-])[C@H]1CC[C@H]2[C@@H]3CC[C@@H]4C[C@H](OS(=O)(=O)[O-])CC[C@]4(C)[C@H]3CC[C@]12C.[Na+].[Na+] [TLCAS] | capable of inducing intracellular calcium signal response

Same assay, conditions: human GPR39-2 cells, no added zinc ions; read-out: EC50 Only agonist

Row | Structure (SMILES) | EC50
3 | C[C@H](CCC(=O)NCCS(=O)(=O)[O-])[C@H]1CC[C@H]2[C@@H]3CC[C@@H]4C[C@H](OS(=O)(=O)[O-])CC[C@]4(C)[C@H]3CC[C@]12C.[Na+].[Na+] [TLCAS] | 69.4 ± 5 µM

Same assay, conditions: read-out: EC50 Agonist + 4 μM zinc ions; human GPR39-2 cells, 4 μM zinc ions

Row | Structure (SMILES) | EC50
4 | C[C@H](CCC(=O)NCCS(=O)(=O)[O-])[C@H]1CC[C@H]2[C@@H]3CC[C@@H]4C[C@H](OS(=O)(=O)[O-])CC[C@]4(C)[C@H]3CC[C@]12C.[Na+].[Na+] [TLCAS] | 9.6 ± 6.3 µM

Tested on: HEK293T cells
Experiment: FLIPR calcium imaging on HEK293T cells not expressing GPR39
Format: cell-based
Details: 293T cells not expressing GPR39
Method: (§1) Bile acids and derivatives thereof as listed in Table 1 below were dissolved in dimethyl sulfoxide (DMSO, Sigma Co.) solvent to formulate a stock solution of 50 mM, which was stored at −20° C. During calcium imaging with FLIPR, the drug was diluted with the above 4K solution into a working concentration of 400 μM, and packaged into another 96-well plate. The drug solution and the cell samples in Example 2.2 were placed into the designated position of the FLIPR instrument (MolecularDevices Co.) respectively. The instrument parameters were set so that 50 μL of the drug solution may be added into the culture wells within 2 s. The fluorescence recording result within the first 30 seconds was used as the baseline value. The FLIPR robot arm was programmed to automatically add bile acids and derivatives thereof into the cell sample culture wells at the 31st second. 1% of DMSO solvent was used as the blank control.
The results of FLIPR calcium imaging experiment of the bile acids and derivatives thereof are shown in FIG. 1, wherein the horizontal coordinate represents the time, and the vertical coordinate represents the relative fluorescence intensity.

Row | Structure (SMILES) | calcium signals on HEK293T cells not expressing GPR39
5 | C[C@H](CCC(=O)O)[C@H]1CC[C@H]2[C@@H]3[C@H](O)C[C@@H]4C[C@H](O)CC[C@]4(C)[C@H]3CC[C@]12C [CDCA, Chenodeoxycholic acid] | may induce observable calcium signals
6 | C[C@H](CCC(=O)O)[C@H]1CC[C@H]2[C@@H]3CC[C@@H]4C[C@H](O)CC[C@]4(C)[C@H]3C[C@H](O)[C@]12C [DCA, Deoxycholic acid] | may induce observable calcium signals

Molecular target: T2, GPR39 receptors on m39-20 cell lines (Mus musculus, UniProt Q5U431, T447P)
T2 construct: P2A-mCherry (C); expressed in transfected cells
T2 sequence (Q5U431 1-456 T447P): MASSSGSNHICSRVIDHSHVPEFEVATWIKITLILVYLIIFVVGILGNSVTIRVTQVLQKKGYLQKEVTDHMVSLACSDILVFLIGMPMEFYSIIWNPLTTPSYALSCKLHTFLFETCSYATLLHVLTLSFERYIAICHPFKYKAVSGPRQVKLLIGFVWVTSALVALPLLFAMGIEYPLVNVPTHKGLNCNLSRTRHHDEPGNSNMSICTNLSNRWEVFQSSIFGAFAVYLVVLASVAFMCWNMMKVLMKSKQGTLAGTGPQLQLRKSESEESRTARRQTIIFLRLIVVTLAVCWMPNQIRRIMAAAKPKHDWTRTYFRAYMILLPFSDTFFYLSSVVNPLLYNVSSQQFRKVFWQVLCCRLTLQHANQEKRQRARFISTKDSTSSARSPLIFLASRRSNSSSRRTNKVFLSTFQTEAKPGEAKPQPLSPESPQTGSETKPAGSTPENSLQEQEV
Experiment: FLIPR calcium imaging on m39-20 cell lines stably expressing murine-derived GPR39
Format: cell-based
Details: Bile acid + 4 μM zinc ions EC50, m39-20 cells, 4 μM zinc ions
Excerpt: Intracellular calcium imaging is a routine technique to study cell functions, the basic principle of which is to detect the concentration of the calcium ion in tissues or cells using a calcium indicator, thereby reflecting certain reactions in the tissues or cells. In the present application, the intracellular calcium released from a cell line that stably or transiently expresses GPR39 is detected using Fluo8-AM, a calcium fluorescent indicator, so as to determine the activation of the GPR39 receptor by the bile acid and derivative thereof.
HEK293T cells (purchased from ATCC) were seeded in a 6-well plate (coming Co.) at an appropriate density (about 0.5-2×10^5/well). When the cell density reached above 30%, the plasmid PLVXK-mGPR39-P2A-mCherry was transfected with Lipofectamine 3000 (Invitrogen) at a concentration of 2 μg per well. The cells were passaged 24 hours after transfection, the puromycin (gibco) was added into the medium at a concentration of 2 μg/mL for antibiotic screening of cells. After 2-4 days of continuous screening, the cells screened for puromycin resistance were trypsinized and screened by flow cytometry for monoclones with red fluorescence. And these monoclones were seeded in a 96-well plate and cultured in a medium without puromycin for around 10 days. Cell colonies with red fluorescence were sorted under a fluorescence microscope, trypsinized and then passaged and expanded in a 6-well plate. Cell lines m39-20 stably expressing murine-derived GPR39 were obtained through the above methods.
Calcium dye Fluo8-AM (ATT bioquest Co.) was dissolved in DMSO solvent to formulate a stock solution of 1 μg/μL. […] After then, the calcium dye working solution was replaced with the 4K solution (50 μL per well), and acclimated for 5 min at room temperature for the subsequent calcium imaging experiment.
as §1, with “The drug solution and the cell samples in Example 2.2 were placed into the designated position of the FLIPR instrument (MolecularDevices Co.) respectively.” left out
After that, the calcium dye working solution was replaced with a 4K solution containing 4 μM zinc ions (50 μL per well), followed by acclimation for 5 min at room temperature.

Row | Structure (SMILES) | EC50
7 | C[C@H](CCC(=O)NCC(=O)O)[C@H]1CC[C@H]2[C@@H]3CC[C@@H]4C[C@H](OS(=O)(=O)O)CC[C@]4(C)[C@H]3CC[C@]12C [GLCAS] | 8 ± 1.8 µM
8 | C[C@H](CCC(=O)O)[C@H]1CC[C@H]2[C@@H]3[C@H](O)C[C@@H]4C[C@H](O)CC[C@]4(C)[C@H]3CC[C@]12C [CDCA, Chenodeoxycholic acid] | 75.1 ± 7.6 µM
9 | C[C@H](CCC(=O)O)[C@H]1CC[C@H]2[C@@H]3CC[C@@H]4C[C@H](O)CC[C@]4(C)[C@H]3C[C@H](O)[C@]12C [DCA, Deoxycholic acid] | 58.4 ± 10 µM

Same assay, conditions: FIG. 1

Row | Structure (SMILES) | intracellular calcium signals in m39-20 cell lines
10 | C[C@H](CCC(=O)NCC(=O)O)[C@H]1CC[C@H]2[C@@H]3CC[C@@H]4C[C@H](OS(=O)(=O)O)CC[C@]4(C)[C@H]3CC[C@]12C [GLCAS] | varying extents of intracellular calcium signals
11 | C[C@H](CCC(=O)NCCS(=O)(=O)[O-])[C@H]1CC[C@H]2[C@@H]3CC[C@@H]4C[C@H](OS(=O)(=O)[O-])CC[C@]4(C)[C@H]3CC[C@]12C.[Na+].[Na+] [TLCAS] | varying extents of intracellular calcium signals

Same assay, conditions: absence of zinc ions

Row | Structure (SMILES) | intracellular calcium signaling response in m39-20 cells
12 | C[C@H](CCC(=O)NCC(=O)O)[C@H]1CC[C@H]2[C@@H]3CC[C@@H]4C[C@H](OS(=O)(=O)O)CC[C@]4(C)[C@H]3CC[C@]12C [GLCAS] | strong intracellular calcium signaling response
13 | C[C@H](CCC(=O)NCCS(=O)(=O)[O-])[C@H]1CC[C@H]2[C@@H]3CC[C@@H]4C[C@H](OS(=O)(=O)[O-])CC[C@]4(C)[C@H]3CC[C@]12C.[Na+].[Na+] [TLCAS] | strong intracellular calcium signaling response

Same assay, conditions: activation efficacy, m39-20 cells, 4 μM zinc ions

Row | Structure (SMILES) | Bile acid + 4 μM zinc ions Efficacy
14 | C[C@H](CCC(=O)NCC(=O)O)[C@H]1CC[C@H]2[C@@H]3CC[C@@H]4C[C@H](OS(=O)(=O)O)CC[C@]4(C)[C@H]3CC[C@]12C [GLCAS] | 110.8 ± 4.1%
15 | C[C@H](CCC(=O)O)[C@H]1CC[C@H]2[C@@H]3[C@H](O)C[C@@H]4C[C@H](O)CC[C@]4(C)[C@H]3CC[C@]12C [CDCA, Chenodeoxycholic acid] | 85 ± 5.2%
16 | C[C@H](CCC(=O)O)[C@H]1CC[C@H]2[C@@H]3CC[C@@H]4C[C@H](O)CC[C@]4(C)[C@H]3C[C@H](O)[C@]12C [DCA, Deoxycholic acid] | 93.1 ± 1.4%

Same assay, conditions: activation efficacy, m39-20 cells, no zinc ions

Row | Structure (SMILES) | Only bile acid Efficacy
17 | C[C@H](CCC(=O)NCC(=O)O)[C@H]1CC[C@H]2[C@@H]3CC[C@@H]4C[C@H](OS(=O)(=O)O)CC[C@]4(C)[C@H]3CC[C@]12C [GLCAS] | 98.8 ± 4.6%
18 | C[C@H](CCC(=O)O)[C@H]1CC[C@H]2[C@@H]3[C@H](O)C[C@@H]4C[C@H](O)CC[C@]4(C)[C@H]3CC[C@]12C [CDCA, Chenodeoxycholic acid] | 0%
19 | C[C@H](CCC(=O)O)[C@H]1CC[C@H]2[C@@H]3CC[C@@H]4C[C@H](O)CC[C@]4(C)[C@H]3C[C@H](O)[C@]12C [DCA, Deoxycholic acid] | 0%

Same assay, conditions: m39-20 cells, 4 μM zinc ions

Row | Structure (SMILES) | activation of GPR39 receptors in the presence of zinc ions
20 | C[C@H](CCC(=O)O)[C@H]1CC[C@H]2[C@@H]3[C@H](O)C[C@@H]4C[C@H](O)CC[C@]4(C)[C@H]3CC[C@]12C [CDCA, Chenodeoxycholic acid] | capable of activating GPR39 receptors
21 | C[C@H](CCC(=O)O)[C@H]1CC[C@H]2[C@@H]3CC[C@@H]4C[C@H](O)CC[C@]4(C)[C@H]3C[C@H](O)[C@]12C [DCA, Deoxycholic acid] | capable of activating GPR39 receptors

Same assay, conditions: m39-20 cells, Table 1, FIG. 2

Row | Structure (SMILES) | change of activation efficacy after the addition of zinc ions
22 | C[C@H](CCC(=O)NCC(=O)O)[C@H]1CC[C@H]2[C@@H]3CC[C@@H]4C[C@H](OS(=O)(=O)O)CC[C@]4(C)[C@H]3CC[C@]12C [GLCAS] | increases slightly
23 | C[C@H](CCC(=O)NCCS(=O)(=O)[O-])[C@H]1CC[C@H]2[C@@H]3CC[C@@H]4C[C@H](OS(=O)(=O)[O-])CC[C@]4(C)[C@H]3CC[C@]12C.[Na+].[Na+] [TLCAS] | increases slightly

Same assay, conditions: m39-20 cells, dose curves

Row | Structure (SMILES) | activation capacity on GPR39 receptors among the bile acids
24 | C[C@H](CCC(=O)NCC(=O)O)[C@H]1CC[C@H]2[C@@H]3CC[C@@H]4C[C@H](OS(=O)(=O)O)CC[C@]4(C)[C@H]3CC[C@]12C [GLCAS] | strongest activation capacity
25 | C[C@H](CCC(=O)NCCS(=O)(=O)[O-])[C@H]1CC[C@H]2[C@@H]3CC[C@@H]4C[C@H](OS(=O)(=O)[O-])CC[C@]4(C)[C@H]3CC[C@]12C.[Na+].[Na+] [TLCAS] | strongest activation capacity

Same assay, conditions: m39-20 cells, no zinc ions; read-out: Only bile acid EC50

Row | Structure (SMILES) | EC50
26 | C[C@H](CCC(=O)NCC(=O)O)[C@H]1CC[C@H]2[C@@H]3CC[C@@H]4C[C@H](OS(=O)(=O)O)CC[C@]4(C)[C@H]3CC[C@]12C [GLCAS] | 47.9 ± 9.4 µM
27 | C[C@H](CCC(=O)O)[C@H]1CC[C@H]2[C@@H]3[C@H](O)C[C@@H]4C[C@H](O)CC[C@]4(C)[C@H]3CC[C@]12C [CDCA, Chenodeoxycholic acid] | > 200 µM
28 | C[C@H](CCC(=O)O)[C@H]1CC[C@H]2[C@@H]3CC[C@@H]4C[C@H](O)CC[C@]4(C)[C@H]3C[C@H](O)[C@]12C [DCA, Deoxycholic acid] | > 200 µM
